31 compounds from patent US9434711B2 (Janssen Pharmaceutica, NV, priority 2007, dated 2016) can be followed below.

As usually defined, the IC50 is the concentration at which inhibition is half-maximal.

In this experiment the target is canine TRPM8 (Canis lupus familiaris, UniProt Q1A7N1). Nature of the experiment: In Vitro Canine TRPM8 Functional Assay (Ca2+ fluorescence, icilin activation). In kind it is cell-based. As to conditions: for IC50: read-out: IC50; for inhibition at 0.5 µM: read-out: % Inh @ 0.5; for inhibition at 0.2 µM: read-out: % Inh @ 0.2. The essentials:
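HEK293 cells stably expressing canine TRPM8 were loaded with Calcium 3 dye (35 min at 37 °C, then 25 min at room temperature). Compound was added and Ca2+ fluorescence was read for 5 min before icilin at a concentration giving about 80% maximal response. EC50/IC50 came from eight-point dose-response curves, quadruplicate wells.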

The mark [1] stands for this setting: HEK293 cells stably expressing canine TRPM8, icilin activation, eight-point dose-response.
Where [2] appears, read: compound at 0.5 μM, canine TRPM8, icilin activation.
The mark [3] stands for this setting: compound at 0.2 μM, canine TRPM8, icilin activation.

The structures appear in SMILES notation. Like-named read-outs stand apart in the source and are kept apart here.

Chain of canine TRPM8 (Q1A7N1 1-1104): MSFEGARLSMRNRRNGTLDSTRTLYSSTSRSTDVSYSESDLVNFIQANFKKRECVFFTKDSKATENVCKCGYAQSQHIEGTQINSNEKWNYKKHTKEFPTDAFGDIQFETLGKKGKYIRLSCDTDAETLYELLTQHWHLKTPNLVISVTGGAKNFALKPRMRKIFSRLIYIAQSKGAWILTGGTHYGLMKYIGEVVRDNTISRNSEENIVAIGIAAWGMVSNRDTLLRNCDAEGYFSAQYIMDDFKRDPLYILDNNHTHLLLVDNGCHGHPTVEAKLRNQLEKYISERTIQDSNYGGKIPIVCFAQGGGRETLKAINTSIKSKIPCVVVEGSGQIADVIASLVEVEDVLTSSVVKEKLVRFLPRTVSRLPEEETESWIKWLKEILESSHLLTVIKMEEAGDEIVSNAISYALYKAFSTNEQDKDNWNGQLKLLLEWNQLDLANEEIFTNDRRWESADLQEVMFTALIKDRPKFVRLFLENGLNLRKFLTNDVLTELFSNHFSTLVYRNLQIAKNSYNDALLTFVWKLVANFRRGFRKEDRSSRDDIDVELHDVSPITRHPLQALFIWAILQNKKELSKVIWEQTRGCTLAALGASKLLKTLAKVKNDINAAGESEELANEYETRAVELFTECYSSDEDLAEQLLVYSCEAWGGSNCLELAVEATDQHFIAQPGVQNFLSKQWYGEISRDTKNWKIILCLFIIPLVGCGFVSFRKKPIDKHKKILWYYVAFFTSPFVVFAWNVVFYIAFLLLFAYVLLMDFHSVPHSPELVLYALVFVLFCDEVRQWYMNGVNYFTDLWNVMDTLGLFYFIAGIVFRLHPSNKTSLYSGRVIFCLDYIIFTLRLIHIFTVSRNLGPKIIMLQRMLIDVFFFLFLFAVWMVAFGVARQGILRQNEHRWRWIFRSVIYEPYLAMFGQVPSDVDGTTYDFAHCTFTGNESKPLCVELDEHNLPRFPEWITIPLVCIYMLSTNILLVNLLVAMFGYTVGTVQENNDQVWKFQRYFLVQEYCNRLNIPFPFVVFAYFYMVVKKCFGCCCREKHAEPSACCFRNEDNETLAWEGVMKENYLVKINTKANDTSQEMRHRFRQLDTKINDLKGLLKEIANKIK

As to `COc1ccc(CN(c2sc3ccccc3c2Br)S(=O)(=O)c2ccccc2)cc1` [Compound 164, N-(3-Bromo-benzo[b]thiophen-2-yl)-N-(4-methoxy-benzyl)-benzenesulfonamide], the IC50 under setting [1] was found to be 31.9 nM. Moreover, under setting [2], the inhibition at 0.5 µM is 97%.

`Cc1c(N(Cc2ccc(F)c(C(F)(F)F)c2)S(=O)(=O)CCC=O)sc2ccccc12` [Compound 724, N-(4-Fluoro-3-trifluoromethyl-benzyl)-N-(3-methyl-benzo[b]thiophen-2-yl)-3-oxo-propane-1-sulfonamide]: the half-inhibitory concentration (IC50) under setting [1] turned out to be 5.3 nM. Besides, the inhibition at 0.2 µM under setting [3] is 102%.

With `O=S(=O)(c1cccnc1)N(Cc1ccc(F)c(C(F)(F)F)c1)c1sc2ccccc2c1Cl` [Compound 189, N-(3-Chloro-benzo[b]thiophen-2-yl)-N-(4-fluoro-3-trifluoromethyl-benzyl)-pyridin-3-yl-sulfonamide], the IC50 under setting [1] worked out at 11.6 nM. For the same compound, the inhibition at 0.2 µM under setting [3] is 100%.

For `O=S(=O)(c1ccc(O)cc1)N(Cc1ccc(F)c(C(F)(F)F)c1)c1sc2ccccc2c1Cl` [Compound 289, N-(3-Chloro-benzo[b]thiophen-2-yl)-N-(4-fluoro-3-trifluoromethyl-benzyl)-4-hydroxy-benzenesulfonamide], the IC50 under setting [1] turned out to be 27 nM. Also, the inhibition at 0.2 µM under setting [3] came to 92%.

Turning to `NS(=O)(=O)N(Cc1ccc(F)c(C(F)(F)F)c1)c1cc2ccccc2s1` [Compound 300, N-(Benzo[b]thiophen-2-yl)-N-(4-fluoro-3-trifluoromethyl-benzyl)-sulfamide], the inhibition at 0.2 µM under setting [3] stood at 21%.

With `CCS(=O)(=O)N(Cc1ccc(F)c(C(F)(F)F)c1)c1sc2ccccc2c1C` [Compound 40, N-(4-Fluoro-3-trifluoromethyl-benzyl)-N-(3-methyl-benzo[b]thiophen-2-yl)-ethanesulfonamide], the IC50 under setting [1] turned out to be 13.7 nM. Also, the inhibition at 0.5 µM under setting [2] amounted to 97%.

Consider `COC(C)(C)CCN(c1sc2ccccc2c1Br)S(=O)(=O)c1ccc(C(=O)O)cc1` [Compound 454, N-(3-Bromo-benzo[b]thiophen-2-yl)-N-(3-methoxy-3-methylbutyl)-4-carboxy-benzenesulfonamide], for which the IC50 under setting [1] stood at 4 nM. Under setting [3], the inhibition at 0.2 µM worked out at 101%.

For `CC(=O)c1c(N(Cc2ccc(F)c(C(F)(F)F)c2)S(=O)(=O)c2ccc(C(=O)O)cc2)sc2ccccc12` [Compound 318, N-(3-Acetyl-benzo[b]thiophen-2-yl)-N-(4-fluoro-3-trifluoromethyl-benzyl)-4-carboxy-benzenesulfonamide], the half-maximal inhibitory concentration (IC50) under setting [1] was 15 nM. For the same compound, the inhibition at 0.2 µM under setting [3] was 101%.

In the case of `Cc1c(N(CCC(F)(F)F)S(=O)(=O)c2ccccc2)sc2ccccc12` [Compound 615, N-(3-Methyl-benzo[b]thiophen-2-yl)-N-(3,3,3-trifluoro-propyl)-benzenesulfonamide], under setting [1], the IC50 was 7.3 nM. Under setting [3], the inhibition at 0.2 µM was determined as 101%.

Regarding `Cc1ccccc1CN(c1cc2ccccc2s1)S(=O)(=O)c1ccccc1` [Compound 62], the IC50 under setting [1] came to 58.1 nM. In addition, the “% Inh @ 0.5 (μM)” value under setting [2] is on record as 98%.

As to `Cc1c(N(Cc2ccc(OC(F)(F)F)cc2)S(=O)(=O)c2cccc3cccnc23)sc2ccccc12` [Compound 21, N-(3-Methyl-benzo[b]thiophen-2-yl)-N-(4-trifluoromethoxy-benzyl)-quinoline-8-sulfonamide], under setting [1], the half-inhibitory concentration (IC50) turned out to be 15 nM. The inhibition at 0.5 µM under setting [2] worked out at 98%.

As for `COc1ccc(S(=O)(=O)N(Cc2ccc(F)c(C(F)(F)F)c2)c2sc3ccccc3c2Cl)cc1` [Compound 181, N-(3-Chloro-benzo[b]thiophen-2-yl)-N-(4-fluoro-3-trifluoromethyl-benzyl)-4-methoxy-benzenesulfonamide], under setting [1], the IC50 came to 84 nM. Moreover, the inhibition at 0.2 µM under setting [3] came to 95%.

In the case of `Cc1c(N(Cc2ccc(F)c(C(F)(F)F)c2)S(=O)(=O)c2ccc(-c3nsc(=O)[nH]3)cc2)sc2ccccc12` [Compound 784, N-(3-Methyl-benzo[b]thiophen-2-yl)-N-(4-fluoro-3-trifluoromethyl-benzyl)-4-(5-oxo-4,5-dihydro-[1,2,4]thiadiazol-3-yl)-benzenesulfonamide], the concentration for half-maximal inhibition (IC50) under setting [1] turned out to be 3.3 nM. In addition, under setting [3], the inhibition at 0.2 µM stood at 102%.

As to `CCCN(c1sc2ccccc2c1C)S(=O)(=O)c1ccc(C(=O)O)cc1` [Compound 404, N-(3-Methyl-benzo[b]thiophen-2-yl)-N-(propyl)-4-carboxy-benzenesulfonamide], under setting [3], the inhibition at 0.2 µM is 96%.

With `O=C1CC[C@@H](CN(c2sc3ccccc3c2Br)S(=O)(=O)c2ccccc2)N1` [Compound 259, (S)—N-(3-Bromo-benzo[b]thiophen-2-yl)-N-(5-oxo-pyrrolidin-2-ylmethyl)-benzenesulfonamide], under setting [3], the inhibition at 0.2 µM came to 24%.

In the case of `CCS(=O)(=O)N(CC1CC1)c1sc2ccccc2c1C(C)=O` [Compound 122, N-(3-Acetyl-benzo[b]thiophen-2-yl)-N-(cyclopropylmethyl)-ethanesulfonamide], the inhibition at 0.2 µM under setting [3] was 23%.

Regarding `O=C(O)c1ccc(S(=O)(=O)N(CC2CCCCC2)c2sc3ccccc3c2Br)cc1` [Compound 279, N-(3-Bromo-benzo[b]thiophen-2-yl)-N-(cyclohexylmethyl)-4-carboxy-benzenesulfonamide], under setting [1], the IC50 came out at 1.3 nM. For the same compound, under setting [3], the inhibition at 0.2 µM came to 97%.

As to `CN(C)CCN(c1sc2ccccc2c1Br)S(=O)(=O)c1ccc(C(=O)O)cc1` [Compound 441, N-(3-Bromo-benzo[b]thiophen-2-yl)-N-(2-(dimethylamino)ethyl)-4-carboxy-benzenesulfonamide], the inhibition at 0.2 µM under setting [3] was determined as 37%.

For the compound `COc1ccccc1CN(c1cc2ccccc2s1)S(=O)(=O)c1ccccc1` [Compound 47, N-(Benzo[b]thiophen-2-yl)-N-(2-methoxy-benzyl)-benzenesulfonamide], the IC50 under setting [1] worked out at 112 nM. Further, the inhibition at 0.5 µM under setting [2] came out at 97%.

Regarding `CC(=O)c1c(N(Cc2ccc(F)c(F)c2)S(=O)(=O)c2ccccc2)sc2ccccc12` [Compound 204, N-(3-Acetyl-benzo[b]thiophen-2-yl)-N-(3,4-difluoro-benzyl)-benzenesulfonamide], under setting [1], the IC50 worked out at 6 nM. Also, under setting [2], the inhibition at 0.5 µM was 96%.

For the compound `NS(=O)(=O)N(CC1CC1)c1sc2ccccc2c1Br` [Compound 303, N-(3-Bromo-benzo[b]thiophen-2-yl)-N-(cyclopropylmethyl)-sulfamide], the inhibition at 0.2 µM under setting [3] was 56%.

As for `Cc1c(N(CCCCC(F)(F)F)S(=O)(=O)c2nc3ccccc3[nH]2)sc2ccccc12` [Compound 727, N-(3-Methyl-benzo[b]thiophen-2-yl)-N-(5,5,5,-trifluoro-pentyl)-1H-benzimidazole-2-sulfonamide], under setting [3], the “% Inh @ 0.2 (μM)” value is given as 16%.

Turning to `CNS(=O)(=O)N(Cc1ccc(F)c(C(F)(F)F)c1)c1sc2ccccc2c1Br` [Compound 705, N-(3-Bromo-benzo[b]thiophen-2-yl)-N-(4-fluoro-3-trifluoromethyl-benzyl)-N′-methyl-sulfamide], the concentration for half-maximal inhibition (IC50) under setting [1] is 19 nM. For the same compound, the inhibition at 0.2 µM under setting [3] was 101%.

For the compound `O=S(=O)(c1ccc(-c2nnn[nH]2)cc1)N(Cc1ccc(F)c(C(F)(F)F)c1)c1sc2ccccc2c1Br` [Compound 475, N-(3-Bromo-benzo[b]thiophen-2-yl)-N-(4-fluoro-3-trifluoromethyl-benzyl)-4-(1H-tetrazol-5-yl)-benzenesulfonamide], the IC50 under setting [1] is 2 nM. In addition, under setting [3], the inhibition at 0.2 µM is 102%.

Turning to `CCS(=O)(=O)N(Cc1ccnc(F)c1)c1sc2ccccc2c1C` [Compound 829, N-(2-Fluoro-pyridin-4-ylmethyl)-N-(3-methyl-benzo[b]thiophen-2-yl)-ethanesulfonamide], the inhibition at 0.2 µM (0.2 μM compound, HEK293 cells stably expressing canine TRPM8, icilin activation) is 100%. Besides, the IC50 (HEK293 cells stably expressing canine TRPM8, icilin activation, average of two or more determinations) came out at 23 nM.

On to `Cc1c(N(CCCCC(F)(F)F)S(=O)(=O)c2ccc(C(=O)[O-])cc2)sc2ccccc12.[Na+]` [Compound 545, Sodium, N-(3-Methylbenzo[b]thiophen-2-yl)-N-(5,5,5-trifluoro-pentyl)-4-carboxy-benzenesulfonamide], for which the 50% inhibitory concentration (IC50) under setting [1] was 1.9 nM. For the same compound, under setting [3], the “% Inh @ 0.2 (μM)” value came to 104.78%.

For `CS(=O)(=O)Nc1ccc(S(=O)(=O)N(CCCCC(F)(F)F)c2cc3ccccc3s2)cc1` [Compound 678, N-(Benzo[b]thiophen-2-yl)-4-methanesulfonylamino-N-(5,5,5-trifluoro-pentyl)-benzenesulfonamide], the inhibition at 0.2 µM under setting [3] amounted to 61%.

Consider `COC(=O)c1ccc(S(=O)(=O)N(CCC(F)(F)F)c2sc3ccccc3c2C)cc1` [Compound 629, N-(3-Methyl-benzo[b]thiophen-2-yl)-N-(3,3,3-trifluoro-propyl)-4-carbomethoxy-benzenesulfonamide], for which the half-maximal inhibitory concentration (IC50) under setting [1] turned out to be 26.2 nM. In addition, under setting [3], the inhibition at 0.2 µM is 103%.

On to `Cc1c(N(Cc2ccc(OC(F)(F)F)cc2)S(=O)(=O)c2ccc(N(C)C)nc2)sc2ccccc12` [Compound 789], for which the IC50 under setting [1] stood at 11.7 nM. Also, the inhibition at 0.2 µM under setting [3] was 102%.

On to `CCCNCc1c(N(Cc2ccc(F)c(C(F)(F)F)c2)S(=O)(=O)CC)sc2ccccc12` [Compound 348, N-(4-Fluoro-3-trifluoromethyl-benzyl)-N-(3-propylaminomethyl-benzo[b]thiophen-2-yl)-ethanesulfonamide], for which the inhibition at 0.2 µM under setting [3] turned out to be 60%.

On to `Cc1c(N(Cc2ccc(F)c(C(F)(F)F)c2)S(=O)(=O)c2cccc(Oc3ccccc3)c2)sc2ccccc12` [Compound 70, N-(4-Fluoro-3-trifluoromethyl-benzyl)-N-(3-methyl-benzo[b]thiophen-2-yl)-3-phenoxy-benzenesulfonamide], for which the concentration for half-maximal inhibition (IC50) under setting [1] came out at 7 nM. Also, the inhibition at 0.2 µM under setting [3] was determined as 99%.
